In patent US20250171495A1, “MUTLI-TARGETED SERINE PROTEASE INHIBITORS FOR TREATMENT OF CANCER AND VIRAL INFECTION” (Washington University, priority 2023, published 2025):

What was measured:
Type in all cases: biochemical
TMPRSS2 = TMPRSS2 (Homo sapiens, UniProt O15393); assay: PS-SCL / HyCoSuL substrate specificity screening, TMPRSS2; conditions: for P2 Position Substrate Activity for TMPRSS2 (percent substrate cleavage/proteolysis): residue fixed at P2 position of substrate library; for P2 Position Substrate Activity for TMPRSS2 (percent substrate cleavage/proteolysis) / P3 Position Substrate Activity for TMPRSS2 (percent substrate cleavage/proteolysis): best recognized amino acid set to 100%; for P3 Position Various Amino Acids Substrate Activity, TMPRSS2 (percent substrate cleavage/proteolysis) / P3 Position Substrate Activity for TMPRSS2 (percent substrate cleavage/proteolysis): residue fixed at P3 position of substrate library; for P4 Position Various Amino Acids Substrate Activity, TMPRSS2 (percent substrate proteolysis/cleavage): residue fixed at P4 position of substrate library
matriptase = target: T1, matriptase (Homo sapiens, UniProt Q9Y5Y6); assay: HyCoSuL P4-P2 substrate specificity screening, matriptase; conditions: for P2 Position Substrate Activity for matriptase (percent substrate cleavage/proteolysis): residue fixed at P2 position; for P2 Position Substrate Activity for matriptase (percent substrate cleavage/proteolysis) / P3 Position Substrate Activity for matriptase (percent substrate cleavage/proteolysis): P1-Arg HyCoSuL, 100 μM, best recognized amino acid set to 100%; for P3 Position Various Amino Acids Substrate Activity, matriptase (percent substrate cleavage/proteolysis): residue fixed at P3 position of substrate library; for P4 Position Various Amino Acids Substrate Activity, matriptase (percent substrate proteolysis/cleavage): residue fixed at P4 position of substrate library; for P3 Position Substrate Activity for matriptase (percent substrate cleavage/proteolysis): residue fixed at P3 position
T1 sequence (Q9Y5Y6 1-855): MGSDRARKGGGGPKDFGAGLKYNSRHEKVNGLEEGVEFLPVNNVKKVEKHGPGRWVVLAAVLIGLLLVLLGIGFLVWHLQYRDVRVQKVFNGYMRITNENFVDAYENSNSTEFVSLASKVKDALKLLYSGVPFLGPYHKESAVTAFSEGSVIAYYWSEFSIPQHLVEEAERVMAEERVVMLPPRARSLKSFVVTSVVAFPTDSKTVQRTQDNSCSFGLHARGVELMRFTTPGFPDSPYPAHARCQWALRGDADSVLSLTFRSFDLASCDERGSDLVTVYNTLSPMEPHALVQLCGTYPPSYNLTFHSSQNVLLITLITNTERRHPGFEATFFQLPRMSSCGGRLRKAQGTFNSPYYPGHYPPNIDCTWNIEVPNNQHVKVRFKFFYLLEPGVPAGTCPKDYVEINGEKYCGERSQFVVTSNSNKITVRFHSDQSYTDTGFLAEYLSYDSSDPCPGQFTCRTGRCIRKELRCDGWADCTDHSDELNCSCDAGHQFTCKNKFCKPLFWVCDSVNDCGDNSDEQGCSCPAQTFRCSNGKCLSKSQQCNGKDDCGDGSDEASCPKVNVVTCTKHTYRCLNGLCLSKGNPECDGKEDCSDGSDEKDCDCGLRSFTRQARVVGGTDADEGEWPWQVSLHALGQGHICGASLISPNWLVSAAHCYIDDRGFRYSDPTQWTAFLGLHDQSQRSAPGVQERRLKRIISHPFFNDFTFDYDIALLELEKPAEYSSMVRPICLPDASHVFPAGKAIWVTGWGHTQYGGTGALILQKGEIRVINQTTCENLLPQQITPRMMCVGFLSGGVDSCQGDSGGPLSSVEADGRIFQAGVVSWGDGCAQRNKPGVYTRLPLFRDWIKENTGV

hepsin = target: T2, hepsin (Homo sapiens, UniProt P05981); assay: HyCoSuL P4-P2 substrate specificity screening, hepsin; conditions: for P2 Position Substrate Activity for hepsin (percent substrate cleavage/proteolysis): residue fixed at P2 position; for P2 Position Substrate Activity for hepsin (percent substrate cleavage/proteolysis) / P3 Position Substrate Activity for hepsin (percent substrate cleavage/proteolysis): P1-Arg HyCoSuL, 100 μM, best recognized amino acid set to 100%; for P3 Position Various Amino Acids Substrate Activity, hepsin (percent substrate cleavage/proteolysis): residue fixed at P3 position of substrate library; for P4 Position Various Amino Acids Substrate Activity, hepsin (percent substrate proteolysis/cleavage): residue fixed at P4 position of substrate library; for P3 Position Substrate Activity for hepsin (percent substrate cleavage/proteolysis): residue fixed at P3 position
T2 construct: purchased R&D Systems 4776-SE-010

HGFA = target: T3, HGFA (Homo sapiens, UniProt Q04756); assay: HyCoSuL P4-P2 substrate specificity screening, HGFA; conditions: for P2 Position Substrate Activity for HGFA (percent substrate cleavage/proteolysis): residue fixed at P2 position; for P2 Position Substrate Activity for HGFA (percent substrate cleavage/proteolysis) / P3 Position Substrate Activity for HGFA (percent substrate cleavage/proteolysis): P1-Arg HyCoSuL, 100 μM, best recognized amino acid set to 100%; for P3 Position Various Amino Acids Substrate Activity, HGFA (percent substrate cleavage/proteolysis): residue fixed at P3 position of substrate library; for P4 Position Various Amino Acids Substrate Activity, HGFA (percent substrate proteolysis/cleavage): residue fixed at P4 position of substrate library; for P3 Position Substrate Activity for HGFA (percent substrate cleavage/proteolysis): residue fixed at P3 position
T3 sequence (Q04756 373-655): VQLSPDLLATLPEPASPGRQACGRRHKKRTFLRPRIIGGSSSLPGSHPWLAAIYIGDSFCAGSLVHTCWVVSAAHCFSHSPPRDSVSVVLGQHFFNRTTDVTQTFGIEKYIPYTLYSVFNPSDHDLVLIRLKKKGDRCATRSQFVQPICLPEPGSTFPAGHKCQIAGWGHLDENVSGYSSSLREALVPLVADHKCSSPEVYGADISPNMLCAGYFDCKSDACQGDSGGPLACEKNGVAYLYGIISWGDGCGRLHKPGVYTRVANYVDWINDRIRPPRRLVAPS

T2 sequence (P05981 163-417 limits assumed): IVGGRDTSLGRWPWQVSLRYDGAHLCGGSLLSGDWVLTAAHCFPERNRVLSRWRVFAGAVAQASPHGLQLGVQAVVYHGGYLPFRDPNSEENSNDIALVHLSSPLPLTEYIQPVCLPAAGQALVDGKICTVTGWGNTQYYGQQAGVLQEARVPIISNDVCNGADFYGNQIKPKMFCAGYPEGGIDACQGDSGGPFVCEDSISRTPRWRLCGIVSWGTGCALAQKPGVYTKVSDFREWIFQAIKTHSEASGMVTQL
T2 sequence (P05981 1-162 partner limits assumed): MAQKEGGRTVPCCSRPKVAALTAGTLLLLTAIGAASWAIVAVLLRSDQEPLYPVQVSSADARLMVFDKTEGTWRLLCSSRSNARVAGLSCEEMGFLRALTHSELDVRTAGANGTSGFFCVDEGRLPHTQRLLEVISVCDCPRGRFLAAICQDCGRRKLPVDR
TMPRSS2, sequence (O15393 whole entry): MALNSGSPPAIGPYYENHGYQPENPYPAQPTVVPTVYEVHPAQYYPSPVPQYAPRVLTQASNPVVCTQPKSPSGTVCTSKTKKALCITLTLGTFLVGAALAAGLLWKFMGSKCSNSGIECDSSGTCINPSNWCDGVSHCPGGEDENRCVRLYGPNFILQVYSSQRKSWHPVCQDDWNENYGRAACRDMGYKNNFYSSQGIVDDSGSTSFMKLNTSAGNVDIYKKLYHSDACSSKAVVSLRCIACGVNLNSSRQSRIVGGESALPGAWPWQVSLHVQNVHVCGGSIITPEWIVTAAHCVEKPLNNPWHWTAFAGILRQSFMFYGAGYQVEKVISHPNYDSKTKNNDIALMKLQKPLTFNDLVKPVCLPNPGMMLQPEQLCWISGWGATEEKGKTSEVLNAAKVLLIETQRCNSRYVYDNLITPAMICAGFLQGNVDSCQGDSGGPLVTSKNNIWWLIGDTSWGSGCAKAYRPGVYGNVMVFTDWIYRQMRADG

| P2 Position Substrate Activity for TMPRSS2 (percent substrate cleavage/proteolysis) (TMPRSS2) [%] | P3 Position Various Amino Acids Substrate Activity, TMPRSS2 (percent substrate cleavage/proteolysis) (TMPRSS2) [%] | P4 Position Various Amino Acids Substrate Activity, TMPRSS2 (percent substrate proteolysis/cleavage) (TMPRSS2) [%] | P2 Position Substrate Activity for matriptase (percent substrate cleavage/proteolysis) (matriptase) [%] | P3 Position Various Amino Acids Substrate Activity, matriptase (percent substrate cleavage/proteolysis) (matriptase) [%] | P4 Position Various Amino Acids Substrate Activity, matriptase (percent substrate proteolysis/cleavage) (matriptase) [%] | P2 Position Substrate Activity for hepsin (percent substrate cleavage/proteolysis) (hepsin) [%] | P3 Position Various Amino Acids Substrate Activity, hepsin (percent substrate cleavage/proteolysis) (hepsin) [%] | P4 Position Various Amino Acids Substrate Activity, hepsin (percent substrate proteolysis/cleavage) (hepsin) [%] | P2 Position Substrate Activity for HGFA (percent substrate cleavage/proteolysis) (HGFA) [%] | P3 Position Various Amino Acids Substrate Activity, HGFA (percent substrate cleavage/proteolysis) (HGFA) [%] | P4 Position Various Amino Acids Substrate Activity, HGFA (percent substrate proteolysis/cleavage) (HGFA) [%] | P3 Position Substrate Activity for TMPRSS2 (percent substrate cleavage/proteolysis) (TMPRSS2) [%] | P3 Position Substrate Activity for matriptase (percent substrate cleavage/proteolysis) (matriptase) [%] | P3 Position Substrate Activity for hepsin (percent substrate cleavage/proteolysis) (hepsin) [%] | P3 Position Substrate Activity for HGFA (percent substrate cleavage/proteolysis) (HGFA) [%] | Substance |
| --- | --- | --- | --- | --- | --- | --- | --- | --- | --- | --- | --- | --- | --- | --- | --- | --- |
| 0.00 | 3.80 | 24.14 | 0 | 5 | 6 | 0.00 | 24.92 | 13.15 | 0.00 | 15.22 | 8.13 |  |  |  |  | D-Phe |
| 0.00 | 0.00 | 31.72 | 0 | 2 | 10 | 11.55 | 54.84 | 21.84 | 0.00 | 10.86 | 7.94 |  |  |  |  | D-Ser |
| 0.00 | 4.49 | 33.78 | 0 | 6 | 7 | 0.00 | 29.94 | 12.66 | 0.00 | 17.32 | 10.09 |  |  |  |  | D-Tyr |
| 0.00 | 0.00 | 17.70 | 0 | 1 | 7 | 0.00 | 27.04 | 22.58 | 0.00 | 5.76 | 8.25 |  |  |  |  | D-Val |

The remaining lines, values behind:

| Substance | P2 Position Substrate Activity for TMPRSS2 (percent substrate cleavage/proteolysis) (TMPRSS2) [%] | P3 Position Various Amino Acids Substrate Activity, TMPRSS2 (percent substrate cleavage/proteolysis) (TMPRSS2) [%] | P4 Position Various Amino Acids Substrate Activity, TMPRSS2 (percent substrate proteolysis/cleavage) (TMPRSS2) [%] | P2 Position Substrate Activity for matriptase (percent substrate cleavage/proteolysis) (matriptase) [%] | P3 Position Various Amino Acids Substrate Activity, matriptase (percent substrate cleavage/proteolysis) (matriptase) [%] | P4 Position Various Amino Acids Substrate Activity, matriptase (percent substrate proteolysis/cleavage) (matriptase) [%] | P2 Position Substrate Activity for hepsin (percent substrate cleavage/proteolysis) (hepsin) [%] | P3 Position Various Amino Acids Substrate Activity, hepsin (percent substrate cleavage/proteolysis) (hepsin) [%] | P4 Position Various Amino Acids Substrate Activity, hepsin (percent substrate proteolysis/cleavage) (hepsin) [%] | P2 Position Substrate Activity for HGFA (percent substrate cleavage/proteolysis) (HGFA) [%] | P3 Position Various Amino Acids Substrate Activity, HGFA (percent substrate cleavage/proteolysis) (HGFA) [%] | P4 Position Various Amino Acids Substrate Activity, HGFA (percent substrate proteolysis/cleavage) (HGFA) [%] | P3 Position Substrate Activity for TMPRSS2 (percent substrate cleavage/proteolysis) (TMPRSS2) [%] | P3 Position Substrate Activity for matriptase (percent substrate cleavage/proteolysis) (matriptase) [%] | P3 Position Substrate Activity for hepsin (percent substrate cleavage/proteolysis) (hepsin) [%] | P3 Position Substrate Activity for HGFA (percent substrate cleavage/proteolysis) (HGFA) [%] |
| --- | --- | --- | --- | --- | --- | --- | --- | --- | --- | --- | --- | --- | --- | --- | --- | --- |
| D-Leu | 0.00 | 0.00 | 28.04 | 0 | 4 | 9 | 0.00 | 20.14 | 24.76 | 0.00 | 7.08 | 10.56 |  |  |  |  |
| D-Lys | 0.00 |  | 16.31 | 0 | 15 | 14 | 0.00 |  | 49.84 | 0.00 |  | 17.66 | 0.00 | 14.70 | 64.56 | 21.11 |
| D-Pro | 0.00 | 0.00 | 19.76 | 0 | 0 | 9 | 0.00 | 38.88 | 20.45 | 0.00 | 4.96 | 10.30 |  |  |  |  |
| D-Thr | 0.00 | 0.00 | 22.57 | 0 | 2 | 9 | 0.00 | 36.69 | 25.74 | 0.00 | 6.45 | 8.61 |  |  |  |  |
| D-Trp | 0.00 |  | 22.02 | 0 | 5 | 5 | 0.00 |  | 1.48 | 0.00 |  | 7.65 | 31.94 | 76.43 | 24.90 | 87.59 |
